According to patent publication US11230543B2, “Biaryl monobactam compounds and methods of use thereof for the treatment of bacterial infections” (priority 2015, dated 2022):
Where a name gives a salt, the structure may show the parent alone.

What was measured:
[1] = system: Klebsiella pneumoniae expressing KPC-1 (CL6569); experiment: Antibiotic activity: growth inhibitory concentration (OD600), Klebsiella pneumoniae CL6569; type: cell-based; settings: lowest concentration inhibiting 95% of bacterial growth; in the presence of β lactamase inhibitor Relebactam 4 μg/mL; 35±2° C. for 22 hours; tested range 100 μM to 0.098 μM
Summary of the method: (§1)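 Growth inhibition by OD600 after 22 hours incubation at 35±2° C, reported as lowest concentration inhibiting 95% of growth (MITC95). Final compound range 100 μM to 0.098 μM, always combined with β-lactamase inhibitor relebactam (4 μg/mL final); inoculum ~2×10^5 CFU/mL in cation-adjusted Mueller-Hinton II broth.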

[2] = system: Pseudomonas aeruginosa expressing AmpC (CL5701); experiment: Antibiotic activity: growth inhibitory concentration (OD600), Pseudomonas aeruginosa CL5701; type: cell-based; settings: lowest concentration inhibiting 95% of bacterial growth; in the presence of β lactamase inhibitor Relebactam 4 μg/mL; 35±2° C. for 22 hours; tested range 100 μM to 0.098 μM
Summary of the method: as §1

Row | Structure (SMILES) | KP_CL6569 MITC95 [1] [µM] | PA_CL5701 MITC95 [2] [µM]
1 | CC1(C)[C@H](NC(=O)/C(=N\O[C@@H](COc2ccc(Nc3cc[n+](CC4CNC4)cc3)nc2)C(=O)O)c2csc(N)n2)C(=O)N1OS(=O)(=O)[O-] [Example 108, (S)-3-((Z)-2-(2-aminothiazol-4-yl)-2-(((S)-2-((6-((1-(azetidin-3-ylmethyl)pyridin-1-ium-4-yl)amino)pyridin-3-yl)oxy)-1-carboxyethoxy)imino)acetamido)-2,2-dimethyl-4-oxoazetidin-1-yl sulfate] | 0.7813 | 12.5
2 | CC1(C)[C@H](NC(=O)/C(=N\O[C@@H](COc2ccc(-n3cc[n+](CC4CNC4)c3)nc2)C(=O)O)c2csc(N)n2)C(=O)N1OS(=O)(=O)[O-] [Example 109, (S)-3-((Z)-2-(2-aminothiazol-4-yl)-2-(((S)-2-((6-(3-(azetidin-3-ylmethyl)-1H-imidazol-3-ium-1-yl)pyridin-3-yl)oxy)-1-carboxyethoxy)imino)acetamido)-2,2-dimethyl-4-oxoazetidin-1-yl sulfate] | 0.7813 | 12.5
3 | CC1(C)[C@H](NC(=O)/C(=N\O[C@@H](COc2ccc(-n3cc[n+](CCC[N+](C)(C)C)c3)nc2)C(=O)O)c2csc(N)n2)C(=O)N1OS(=O)(=O)O [Example 110, (S)-3-((Z)-2-(2-aminothiazol-4-yl)-2-(((S)-1-carboxy-2-((6-(3-(3-(trimethylammonio)propyl)-1H-imidazol-3-ium-1-yl)pyridin-3-yl)oxy)ethoxy)imino)acetamido)-2,2-dimethyl-4-oxoazetidin-1-yl sulfate] | 1.563 | 50
4 | CC1(C)[C@H](NC(=O)/C(=N\O[C@@H](COc2cnc(-n3cc[n+](CCCN)c3)nc2)C(=O)O)c2csc(N)n2)C(=O)N1OS(=O)(=O)[O-] [Example 111, (S)-3-((Z)-2-(((S)-2-((2-(3-(3-aminopropyl)-1H-imidazol-3-ium-1-yl)pyrimidin-5-yl)oxy)-1-carboxyethoxy)imino)-2-(2-aminothiazol-4-yl)acetamido)-2,2-dimethyl-4-oxoazetidin-1-yl sulfate] | 1.563 | 50
5 | CC1(C)[C@H](NC(=O)/C(=N\O[C@@H](COc2ccc(-n3cc[n+](CCCN)c3)nc2)C(=O)O)c2csc(N)n2)C(=O)N1OS(=O)(=O)[O-] [Example 112, (S)-3-((Z)-2-(((S)-2-((6-(3-(3-aminopropyl)-1H-imidazol-3-ium-1-yl)pyridin-3-yl)oxy)-1-carboxyethoxy)imino)-2-(2-aminothiazol-4-yl)acetamido)-2,2-dimethyl-4-oxoazetidin-1-yl sulfate] | 0.7813 | 10.42
6 | CC1(C)[C@H](NC(=O)/C(=N\O[C@@](C)(COc2ccc(-n3cc[n+](CCCN)c3)nc2)C(=O)O)c2csc(N)n2)C(=O)N1OS(=O)(=O)[O-] [Example 113, (S)-3-((Z)-2-((((S)-1-((6-(3-(3-aminopropyl)-1H-imidazol-3-ium-1-yl)pyridin-3-yloxy)-2-carboxypropan-2-yl)oxy)imino)-2-(2-aminothiazol-4-yl)acetamido)-2,2-dimethyl-4-oxoazetidin-1-yl sulfate] | 0.7813 | 12.5
7 | Cn1c(-c2ccc(OC[C@H](O/N=C(\C(=O)N[C@@H]3C(=O)N(OS(=O)(=O)O)C3(C)C)c3csc(N)n3)C(N)=O)cc2)cn(CCCN)c1=N [Example 114, (S)-3-((Z)-2-((((S)-1-amino-3-(4-(1-(3-aminopropyl)-2-imino-3-methyl-2,3-dihydro-1H-imidazol-4-yl)phenoxy)-1-oxopropan-2-yl)oxy)imino)-2-(2-aminothiazol-4-yl)acetamido)-2,2-dimethyl-4-oxoazetidin-1-yl sulfate] | 1.563 | 50
8 | CCOC(=O)[C@H](COc1ccc(-c2cn(CCCN)[n+](C)c2)cc1)O/N=C(\C(=O)N[C@@H]1C(=O)N(OS(=O)(=O)[O-])C1(C)C)c1csc(N)n1 [Example 115, (S)-3-((Z)-2-((((S)-3-(4-(1-(3-aminopropyl)-2-methyl-1H-pyrazol-2-ium-4-yl)phenoxy)-1-ethoxy-1-oxopropan-2-yl)oxy)imino)-2-(2-aminothiazol-4-yl)acetamido)-2,2-dimethyl-4-oxoazetidin-1-yl sulfate] | 12.5 | 100
9 | CCOC(=O)[C@H](COc1ccc(-c2cn(CCCN)c(=N)n2C)cc1)O/N=C(\C(=O)N[C@@H]1C(=O)N(OS(=O)(=O)O)C1(C)C)c1csc(N)n1 [Example 116, Ethyl (S)-3-(4-(1-(3-aminopropyl)-2-imino-3-methyl-2,3-dihydro-1H-imidazol-4-yl)phenoxy)-2-((((Z)-1-(2-aminothiazol-4-yl)-2-(((S)-2,2-dimethyl-4-oxo-1-(sulfooxy)azetidin-3-yl)amino)-2-oxoethylidene)amino)oxy)propanoate] | 6.25 | 50
10 | COC(=O)[C@H](COc1ccc(-c2cn(CCCN)[n+](C)c2)cc1)O/N=C(\C(=O)N[C@@H]1C(=O)N(OS(=O)(=O)[O-])C1(C)C)c1csc(N)n1 [Example 117, (S)-3-((Z)-2-((((S)-3-(4-(1-(3-aminopropyl)-2-methyl-1H-pyrazol-2-ium-4-yl)phenoxy)-1-methoxy-1-oxopropan-2-yl)oxy)imino)-2-(2-aminothiazol-4-yl)acetamido)-2,2-dimethyl-4-oxoazetidin-1-yl sulfate] | 3.125 | 25
11 | CC1(C)[C@H](NC(=O)/C(=N\O[C@@H](COc2ccc(-n3ccn(CCCN)c3=N)nc2)C(=O)O)c2csc(N)n2)C(=O)N1OS(=O)(=O)O [Example 118, (S)-3-((6-(3-(3-aminopropyl)-2-imino-2,3-dihydro-1H-imidazol-1-yl)pyridin-3-yl)oxy)-2-((((Z)-1-(2-aminothiazol-4-yl)-2-(((S)-2,2-dimethyl-4-oxo-1-(sulfooxy)azetidin-3-yl)amino)-2-oxoethylidene)amino)oxy)propanoic acid] | 0.3906 | 6.25
12 | CC1(C)[C@H](NC(=O)/C(=N\O[C@@H](COc2ccc(-c3cn(CCCN)[n+](CC4(F)CNC4)c3)cc2)C(=O)O)c2csc(N)n2)C(=O)N1OS(=O)(=O)[O-] [Example 119, (S)-3-((Z)-2-(((S)-2-(4-(1-(3-aminopropyl)-2-((3-fluoroazetidin-3-yl)methyl)-1H-pyrazol-2-ium-4-yl)phenoxy)-1-carboxyethoxy)imino)-2-(2-aminothiazol-4-yl)acetamido)-2,2-dimethyl-4-oxoazetidin-1-yl sulfate] | 0.3906 | 6.25
13 | C[n+]1nc(NCCCN)ccc1-c1ccc(OC[C@H](O/N=C(\C(=O)N[C@@H]2C(=O)N(OS(=O)(=O)[O-])C2(C)C)c2csc(N)n2)C(=O)O)cc1 [Example 122, (S)-3-((Z)-2-(((S)-2-(4-(3-((3-aminopropyl)amino)-1-methylpyridazin-1-ium-6-yl)phenoxy)-1-carboxyethoxy)imino)-2-(2-aminothiazol-4-yl)acetamido)-2,2-dimethyl-4-oxoazetidin-1-yl sulfate] | 0.1953 | 3.125
14 | C[n+]1nc(-c2ccc(OC[C@H](O/N=C(\C(=O)N[C@@H]3C(=O)N(OS(=O)(=O)[O-])C3(C)C)c3csc(N)n3)C(=O)O)cc2)ccc1NCCCN [Example 123, (S)-3-((Z)-2-(((S)-2-(4-(6-((3-aminopropyl)amino)-1-methylpyridazin-1-ium-3-yl)phenoxy)-1-carboxyethoxy)imino)-2-(2-aminothiazol-4-yl)acetamido)-2,2-dimethyl-4-oxoazetidin-1-yl sulfate] | 0.3906 | 12.5
15 | CC1(C)[C@H](NC(=O)/C(=N\O[C@@H](COc2ccc(-n3cc(CCCN)[n+](CC4(F)CNC4)c3)nc2)C(=O)O)c2csc(N)n2)C(=O)N1OS(=O)(=O)[O-] [Example 124, (S)-3-((Z)-2-(((S)-2-((6-(4-(3-aminopropyl)-3-((3-fluoroazetidin-3-yl)methyl)-1H-imidazol-3-ium-1-yl)pyridin-3-yl)oxy)-1-carboxyethoxy)imino)-2-(2-aminothiazol-4-yl)acetamido)-2,2-dimethyl-4-oxoazetidin-1-yl sulfate] | 0.7813 | 12.5
16 | CC1(C)[C@H](NC(=O)/C(=N\O[C@@H](COc2ccc(-c3cc(CNCCN)n(CCCN)n3)cc2)C(=O)O)c2csc(N)n2)C(=O)N1OS(=O)(=O)O [Example 125, (S)-3-(4-(5-(((2-Aminoethyl)amino)methyl)-1-(3-aminopropyl)-1H-pyrazol-3-yl)phenoxy)-2-((((Z)-1-(2-aminothiazol-4-yl)-2-(((S)-2,2-dimethyl-4-oxo-1-(sulfooxy)azetidin-3-yl)amino)-2-oxoethylidene)amino)oxy)propanoic acid] | 0.39 | 3.125
17 | CC1(C)[C@H](NC(=O)/C(=N\O[C@@H](COc2ccc(-c3cc(CN)n(CCCN)n3)cc2)C(=O)O)c2csc(N)n2)C(=O)N1OS(=O)(=O)O [Example 126, (S)-3-(4-(5-(Aminomethyl)-1-(3-aminopropyl)-1H-pyrazol-3-yl)phenoxy)-2-((((Z)-1-(2-aminothiazol-4-yl)-2-(((S)-2,2-dimethyl-4-oxo-1-(sulfooxy)azetidin-3-yl)amino)-2-oxoethylidene)amino)oxy)propanoic acid] | 0.39 | 3.125
